Pest or weed control data for ten compounds are collected here from patent US8940913B2, “Herbicides” (Syngenta Crop Protection, LLC, priority 2007, dated 2015).

Type in all cases: in vivo
In assay [1] the test system is Alopecurus myosuroides (ALOMY). Description: Pre-emergence herbicidal activity, glasshouse pot test. To be noted: 480 h, rate 250 g/ha, evaluated 20 days later, 100=total damage to plant, 0=no damage to plant. How it is done: (§1) Monocotyledonous and dicotyledonous test plants were sown in standard soil in pots. After cultivation for one day (pre-emergence) or after 10 days cultivation (post-emergence) under controlled conditions in a glasshouse, the plants were sprayed with an aqueous spray solution derived from the formulation of the technical active ingredient in 0.6 ml acetone and 45 ml formulation solution containing 10.6% Emulsogen EL (Registry number 61791-12-6), 42.2% N-methylpyrrolidone, 42.2% dipropylene glycol monomethyl ether (Registry number 34590-94-8) and 0.2% X-77 (Registry number 11097-66-8). The test plants were then grown in a greenhouse under optimum conditions until, 15 days later for post-emergence and 20 days for pre-emergence, the test was evaluated (100=total damage to plant; 0=no damage to plant). Test Plants: Alopecurus myosuroides (ALOMY), Avena fatua (AVEFA), Lolium perenne (LOLPE), Setaria faberi (SETFA), Digitaria sanguinalis (DIGSA), Echinochloa crus-galli (ECHCG)

Assay [2] deals with Avena fatua (AVEFA). The description is as above. To be noted: 480 h, rate 250 g/ha, evaluated 20 days later, 100=total damage to plant, 0=no damage to plant. How it is done: as §1
Assay [3] relates to Digitaria sanguinalis (DIGSA). Described as above. Conditions: 480 h, rate 250 g/ha, evaluated 20 days later, 100=total damage to plant, 0=no damage to plant. As to the method:
as §1

In assay [4] the test system is Echinochloa crus-galli (ECHCG). The description is as above. To be noted: 480 h, rate 250 g/ha, evaluated 20 days later, 100=total damage to plant, 0=no damage to plant. As to the method:
as §1

For assay [5], the system named is Lolium perenne (LOLPE). The description is as above. Conditions: 480 h, rate 250 g/ha, evaluated 20 days later, 100=total damage to plant, 0=no damage to plant. As to the method: as §1
In assay [6] the test system is Setaria faberi (SETFA). The assay is described as above. Conditions: 480 h, rate 250 g/ha, evaluated 20 days later, 100=total damage to plant, 0=no damage to plant. As to the method:
as §1

In assay [7] the test system is Alopecurus myosuroides (ALOMY). Description: Post-emergence herbicidal activity, glasshouse pot test. Conditions: 360 h, rate 125 g/ha, evaluated 15 days later, 100=total damage to plant, 0=no damage to plant. As to the method: as §1
Assay [8] has as its system Avena fatua (AVEFA). Described as above. Conditions: 360 h, rate 125 g/ha, evaluated 15 days later, 100=total damage to plant, 0=no damage to plant. As to the method: as §1
Assay [9] concerns Digitaria sanguinalis (DIGSA). The description is as above. To be noted: 360 h, rate 125 g/ha, evaluated 15 days later, 100=total damage to plant, 0=no damage to plant. As to the method: as §1
In assay [10] the test system is Echinochloa crus-galli (ECHCG). Described as above. To be noted: 360 h, rate 125 g/ha, evaluated 15 days later, 100=total damage to plant, 0=no damage to plant. As to the method: as §1
Assay [11] has as its system Lolium perenne (LOLPE). Described as above. To be noted: 360 h, rate 125 g/ha, evaluated 15 days later, 100=total damage to plant, 0=no damage to plant. As to the method:
as §1

The subject of assay [12] is Setaria faberi (SETFA). Described as above. To be noted: 360 h, rate 125 g/ha, evaluated 15 days later, 100=total damage to plant, 0=no damage to plant. How it is done:
as §1

The term pest or weed control denotes the degree to which the test organism was suppressed or injured, in per cent. Read a high pest or weed control as a strong effect. For the compound `Cc1cc(-c2ccccc2)cc(C)c1C1C(=O)[C@@H]2[C@H](C1=O)[C@@]1(C)CC[C@]2(C)O1` (stereo partly drawn) [Compound T7], the pest or weed control at 250 g/ha in assay [1] amounted to 90%; in the assay on Avena fatua (AVEFA) [2], 40%; in [3], 100%; in assay [4], 100%; with Lolium perenne (LOLPE) [5], 40%; in the assay on Setaria faberi (SETFA) [6] it was 100%. Besides, the pest or weed control at 125 g/ha amounted to 70% in [7]; 60% in the assay with Avena fatua (AVEFA) [8]; 80% in [9]; 100% in assay [10]; 60% in the assay on Lolium perenne (LOLPE) [11]; 90% in the assay on Setaria faberi (SETFA) [12].
`Cc1cc(-c2ccccc2)cc(C)c1C1C(=O)[C@H]2[C@@H]3CC[C@@](C)(O3)[C@H]2C1=O` (stereo partly drawn) [Compound T8]: the pest or weed control at 250 g/ha in assay [1] is 90%; in the assay on Avena fatua (AVEFA) [2] it was 50%; in assay [3], 100%; in assay [4], 100%; in the assay with Lolium perenne (LOLPE) [5], 80%; in the assay with Setaria faberi (SETFA) [6] it was 100%. The pest or weed control at 125 g/ha turned out to be 100% in assay [7]; 90% with Avena fatua (AVEFA) [8]; 100% in [9]; 100% in assay [10]; 70% in the assay on Lolium perenne (LOLPE) [11]; 100% with Setaria faberi (SETFA) [12].
Regarding `CCc1cc(-c2ccc(C)cc2)cc(CC)c1C1C(=O)[C@@H]2[C@H](C1=O)[C@H]1CC[C@@H]2O1` (stereo partly drawn) [Compound T9], the pest or weed control at 250 g/ha in assay [1] worked out at 70%; in the assay on Avena fatua (AVEFA) [2], 50%; in assay [3], 60%; in [4] it was 100%; with Lolium perenne (LOLPE) [5], 80%; in the assay with Setaria faberi (SETFA) [6] it was 50%. Besides, the pest or weed control at 125 g/ha was 80% in assay [7]; 20% in the assay with Avena fatua (AVEFA) [8]; 80% in [9]; 100% in [10]; 80% in the assay with Lolium perenne (LOLPE) [11]; 70% with Setaria faberi (SETFA) [12].
In the case of `CCc1ccc(-c2ccc(Cl)cc2F)cc1C1=C(O)[C@H]2[C@@H](C1=O)[C@@H]1CC[C@H]2O1` [Compound T10], the pest or weed control at 250 g/ha came to 70% in assay [1]; 70% with Avena fatua (AVEFA) [2]; 100% in assay [3]; 100% in assay [4]; 80% in the assay with Lolium perenne (LOLPE) [5]; 100% in the assay on Setaria faberi (SETFA) [6]. In addition, the pest or weed control at 125 g/ha in assay [7] was determined as 90%; in the assay with Avena fatua (AVEFA) [8], 90%; in assay [9], 100%; in assay [10] it was 100%; with Lolium perenne (LOLPE) [11], 90%; in the assay with Setaria faberi (SETFA) [12] it was 100%.
For `CCc1ccc(-c2ccc(Cl)cc2)cc1C1=C(O)[C@H]2[C@@H](C1=O)[C@]1(C)C=C[C@@]2(C)O1` [Compound T12], the pest or weed control at 250 g/ha in assay [1] is 70%; in the assay with Avena fatua (AVEFA) [2], 20%; in assay [3], 100%; in [4] it was 90%; with Lolium perenne (LOLPE) [5], 60%; with Setaria faberi (SETFA) [6] it was 100%. Besides, the pest or weed control at 125 g/ha in [7] was found to be 100%; with Avena fatua (AVEFA) [8], 100%; in assay [9], 100%; in [10], 100%; with Lolium perenne (LOLPE) [11], 80%; with Setaria faberi (SETFA) [12], 100%.
Take `CCc1ccc(-c2ccc(Cl)cc2C)cc1C1=C(O)[C@H]2[C@@H](C1=O)[C@@H]1CC[C@H]2O1` [Compound T13]: the pest or weed control at 250 g/ha in [1] is 40%; in the assay on Avena fatua (AVEFA) [2], 20%; in assay [3], 80%; in assay [4] it was 70%; in the assay with Lolium perenne (LOLPE) [5] it was 30%; with Setaria faberi (SETFA) [6], 80%. In addition, the pest or weed control at 125 g/ha turned out to be 50% in [7]; 30% with Avena fatua (AVEFA) [8]; 10% in assay [9]; 100% in assay [10]; 40% in the assay with Lolium perenne (LOLPE) [11]; 80% with Setaria faberi (SETFA) [12].
For `CCc1ccc(-c2ccc(Cl)c(Cl)c2)cc1C1=C(O)[C@H]2[C@@H](C1=O)[C@@H]1CC[C@H]2O1` [Compound T14], the pest or weed control at 250 g/ha in assay [1] amounted to 10%; in the assay with Avena fatua (AVEFA) [2] it was 20%; in [3], 90%; in assay [4], 90%; with Lolium perenne (LOLPE) [5], 40%; in the assay on Setaria faberi (SETFA) [6], 100%. Further, the pest or weed control at 125 g/ha in [7] stood at 90%; in the assay with Avena fatua (AVEFA) [8] it was 80%; in [9], 100%; in assay [10], 100%; in the assay on Lolium perenne (LOLPE) [11], 30%; with Setaria faberi (SETFA) [12] it was 100%.
As for `CCc1ccc(-c2ccc(Cl)c(OC)c2)cc1C1=C(O)[C@H]2[C@@H](C1=O)[C@@H]1CC[C@H]2O1` [Compound T15], the pest or weed control at 250 g/ha turned out to be 20% in [1]; 10% in the assay with Avena fatua (AVEFA) [2]; 90% in [3]; 100% in assay [4]; 20% in the assay with Lolium perenne (LOLPE) [5]; 80% in the assay on Setaria faberi (SETFA) [6]. Moreover, the pest or weed control at 125 g/ha in assay [7] is 100%; in the assay on Avena fatua (AVEFA) [8] it was 90%; in assay [9], 100%; in assay [10], 100%; with Lolium perenne (LOLPE) [11], 40%; in the assay on Setaria faberi (SETFA) [12], 100%.
For `CCc1ccc(-c2ccc(Cl)c(C(F)(F)F)c2)cc1C1=C(O)[C@H]2[C@@H](C1=O)[C@@H]1CC[C@H]2O1` [Compound T17], the pest or weed control at 250 g/ha is 0% in assay [1]; 0% with Avena fatua (AVEFA) [2]; 90% in [3]; 90% in [4]; 20% in the assay with Lolium perenne (LOLPE) [5]; 80% in the assay on Setaria faberi (SETFA) [6]. The pest or weed control at 125 g/ha came out at 90% in assay [7]; 90% in the assay on Avena fatua (AVEFA) [8]; 100% in [9]; 100% in assay [10]; 40% with Lolium perenne (LOLPE) [11]; 100% in the assay with Setaria faberi (SETFA) [12].
`CCc1ccc(-c2ccc(Cl)s2)cc1C1=C(O)[C@H]2[C@@H](C1=O)[C@@H]1CC[C@H]2O1` [Compound T18]: the pest or weed control at 250 g/ha came to 50% in [1]; 20% with Avena fatua (AVEFA) [2]; 100% in assay [3]; 90% in assay [4]; 80% in the assay on Lolium perenne (LOLPE) [5]; 90% with Setaria faberi (SETFA) [6]. Moreover, the pest or weed control at 125 g/ha in assay [7] came out at 100%; in the assay on Avena fatua (AVEFA) [8] it was 100%; in assay [9], 100%; in assay [10], 100%; in the assay on Lolium perenne (LOLPE) [11] it was 70%; with Setaria faberi (SETFA) [12], 100%.
